# Experimental data published in patent US12186413B2, “Non-cellular root canal filler and non-cellular dental tissue regeneration promotion kit” (KOWA COMPANY, LTD., priority 2019, dated 2025).
# Where two headings read alike, the source gives them in different places.
# Experiments:
# dental pulp [1] = assay: Dental pulp regeneration after pulpectomy in young dogs with non-cellular root canal filler; assay type: in vivo, dog; conditions: for dental pulp regeneration (H-E staining, morphological observation) / infiltration / internal absorption of inflammatory cells: 12-month-old dogs; for dental pulp regeneration (H-E staining, morphological observation) / infiltration / internal absorption of inflammatory cells / regeneration of dental pulp-like tissues (H-E staining): trypsin pretreatment; for dental pulp regeneration (H-E staining, morphological observation): 1.25 μg compound B or 0.83 μg SB328437 + 150 ng G-CSF in 20 μl collagen; for infiltration / internal absorption of inflammatory cells: filler with G-CSF and collagen; for amount of the regenerated dental pulp (ratio of regenerated dental pulp area to dental pulp cavity area): compound B filler compared with SB328437 filler
# Description: After general anesthesia, pulpectomy was performed for maxillary and mandibular right and left anterior teeth in young (12-month-old) dogs. The openings were enlarged to the apex of the root with #55, then washed alternately with a 5% sodium hypochlorite solution and a 3% hydrogen peroxide solution, further washed with saline, dried, and then temporarily sealed with a resin completely. At 3 to 12 days after the pulpectomy, the temporary seals were removed, and the openings were washed alternately and washed with saline again. Then, the root canals were filled with 3% EDTA (Smear Clean, Nippon Shika Yakuhin Co., Ltd.), treated for 2 minutes, further washed with saline, and dried. Then, the root canals were pretreated by the application of trypsin preparation (5 mg of Francetin T powder (2,500 USP crystal trypsin per 10 mg, Mochida Pharmaceutical Co., Ltd.)/ml of 0.5% nanobubble water (prepared with Foamest 8 (NAC Corp.); see Koichiro Iohara and Misako Nakajima “Enhanced Delivery of Antibacterial Nanopolymers with Nanobubbles for the Complete Disinfection of the Root Canal System in a Canine Model of Intractable Periapical Disease”, The Japanese Journal Of Conservative Dentistry, Vol. 63, No. 1, p. 73-82) for 10 minutes, and then washed with saline. Subsequently, a CCR3 antagonist (1.25 μg of compound B or 0.83 μg of SB328437 (Tocris Bioscience)) as a regeneration promoting compound and 150 ng of G-CSF (Neutrogin, Chugai Pharmaceutical Co., Ltd.) as a chemotactic factor were added to 20 μl of extracellular matrix collagen (Koken Atelocollagen Implant, Koken Co., Ltd.) to prepare a non-cellular root canal filler, which was then filled into the root canals. Then, a gelatin sponge for hemostasis (Spongel, Astellas Pharma Inc.) was placed thereon, and the cavities were completely sealed with glass ionomer cement and a photopolymerizable resin. Then, 28 days after transplantation, the teeth were extracted, and 5 μm paraffin sections were prepared on longitudinal sections according to a standard method, stained with H-E, and then morphologically observed. The amount of the regenerated dental pulp was evaluated by measuring the ratio of the area of regenerated dental pulp to the area of a dental pulp cavity as to four sections per sample, and calculating the mean of four samples. Angiogenesis was evaluated by staining day 28 specimens with Fluorescein labeled Griffonia simplicifolia (Bandeiraea simplicifolia) Lectin I (GSL I, BSL I) and Fluorescein labeled Galanthus nivalis (Snowdrop) Lectin (GNL) (Vector Laboratories) (20 μg/ml) for 15 minutes, followed by comparative examination. Neurite extension was evaluated by immunostaining day-28 specimens with an anti-PGP9.5 antibody (UltraClone, 1:10,000), followed by comparative examination.
# After general anesthesia, pulpectomy was performed for maxillary and mandibular right and left anterior teeth in young (11-month-old) dogs. The openings were enlarged to the apex of the root with #55, then washed alternately with a 5% sodium hypochlorite solution and a 3% hydrogen peroxide solution, and further washed with saline. The root canals were thoroughly dried with a paper point and temporarily sealed with cement and a resin completely after hemostasis. Then, 8 days after the pulpectomy, the temporary seals were removed, and the openings were washed alternately and washed with saline again. Then, the root canals were filled with 3% EDTA (Smear Clean, Nippon Shika Yakuhin Co., Ltd.), treated for 2 minutes, further washed with saline, and dried. Then, the root canals were pretreated by the application of a trypsin preparation (5 mg of Francetin T powder (2,500 USP crystal trypsin per 10 mg), Mochida Pharmaceutical Co., Ltd.)/ml of 0.5% nanobubble water (prepared with Foamest 8 (NAC Corp.); as described in Example 1)) for 10 minutes, and then washed with saline. […]
# dental pulp [2] = conditions: cited from earlier work
# dental pulp stem cells = conditions: dentin surfaces treated with trypsin in vitro; cited from earlier work
# [3] = Example 3, compound B filler, 28 days
# [4] = Example 3, with and without trypsin pretreatment, 28 days
compound,measurement,setting,value
"CC(C)Nc1ccc(CNCCN2Cc3ccc(F)cc3CC2Cc2ccc(F)cc2)cc1.O=C(O)/C=C/C(=O)O (single isomer, unassigned; (+)) [compound B, (+)-4-[[2-[6-fluoro-3-(4-fluorobenzyl)-3,4-dihydroisoquinolin-2(1H)-yl]ethylamino]methyl]-N-isopropylaniline monofumarate]","dental pulp regeneration (H-E staining, morphological observation)","dental pulp [1]; Example 1, 28 days",found to cause dental pulp regeneration of loose connective tissues rich in blood vessels
same,infiltration / internal absorption of inflammatory cells,"dental pulp [1]; Example 1, 28 days",neither the infiltration nor internal absorption of inflammatory cells was observed
same,amount of the regenerated dental pulp (ratio of regenerated dental pulp area to dental pulp cavity area),"dental pulp [1]; Example 1, 28 days",No statistically significant difference
same,angiogenesis (lectin staining),"dental pulp [1]; Example 1, day 28 specimens",confirmed
same,neurite extension (PGP9.5 immunostaining),"dental pulp [1]; Example 1, day 28 specimens",confirmed
same,odontoblast-like cell adhesion to dentin side wall / dentin-like hard tissue formation,"dental pulp [1]; Example 1, day 28 specimens",odontoblast-like cells adhere to the side wall of the dentin to form dentin-like hard tissues
same,regeneration of dental pulp-like tissues (H-E staining),"dental pulp [1]; Example 2, 11-month-old dogs, 1.25 μg compound B + 150 ng G-CSF in collagen, 28 days",found to sufficiently regenerate dental pulp-like tissues
same,amount of the regenerated dental pulp versus filler containing no compound B,"dental pulp [1]; Example 2, 28 days",Statistically significant difference
same,angiogenesis (BS-1 lectin staining) versus filler containing no compound B,"dental pulp [1]; Example 2, 28 days",similar
same,neurite extension (PGP9.5 immunostaining) versus filler containing no compound B,"dental pulp [1]; Example 2, 28 days",similar
same,regeneration of dental pulp tissues (H-E staining),"dental pulp [1]; Example 3, 11-month-old dogs, with or without trypsin pretreatment, 1.25 μg compound B + 150 ng G-CSF in collagen, 28 days","regeneration of dental pulp tissues was observed, regardless of whether trypsin pretreatment was performed or not"
same,"amount of regenerated dental pulp, with versus without trypsin pretreatment",dental pulp [1]; [3],"tended to slightly increase the amount of regenerated dental pulp, albeit with no statistically significant difference"
same,"odontoblast-like cell adhesion to dentin side wall and dentin-like hard tissue amount, with versus without trypsin pretreatment",dental pulp [1]; [3],tended to allow more odontoblast-like cells to adhere to the side wall of the dentin and form dentin-like hard tissues in a slightly higher amount
same,angiogenesis (BS-1 lectin staining),dental pulp [1]; [4],similarly observed in both these cases
same,neurite extension (PGP9.5 immunostaining),dental pulp [1]; [4],similarly observed in both these cases
same,"dental pulp regeneration, odontoblast-like cell adhesion and dentin-like hard tissue formation","dental pulp [1]; Example 3, without trypsin pretreatment, 28 days",regenerates the dental pulp with angiogenesis and neurite extension
"CS(=O)(=O)Nc1cccc(CNCCN2Cc3ccc(F)cc3CC2Cc2ccc(F)cc2)c1.O=C(O)CC(O)(CC(=O)O)C(=O)O (single isomer, unassigned; (+)) [compound C, (+)-N-[3-(methanesulfonylamino)benzyl]-2-[6-fluoro-3-(4-fluorobenzyl)-3,4-dihydroisoquinolin-2(1H)-yl]ethanamine monocitrate]",regeneration of dental pulp-like tissues (H-E staining),"dental pulp [1]; Example 4, 11-month-old dogs, 1.2 μg compound C + 150 ng G-CSF in collagen, 28 days",found to sufficiently regenerate dental pulp-like tissues
same,area of the dentin (ratio to area of tooth) versus filler containing no compound C,"dental pulp [1]; Example 4, 28 days",tended to increase the area of the dentin
same,density of dentin cells (within 1 mm from root canal side wall) versus filler containing no compound C,"dental pulp [1]; Example 4, 28 days",increased the density of dentin cells
"COC(=O)[C@H](Cc1ccc([N+](=O)[O-])cc1)NC(=O)c1cccc2ccccc12 [SB328437, reference compound]","dental pulp regeneration (H-E staining, morphological observation)","dental pulp [1]; Example 1, 28 days",found to cause dental pulp regeneration of loose connective tissues rich in blood vessels
same,infiltration / internal absorption of inflammatory cells,"dental pulp [1]; Example 1, 28 days",neither the infiltration nor internal absorption of inflammatory cells was observed
same,amount of the regenerated dental pulp (ratio of regenerated dental pulp area to dental pulp cavity area),"dental pulp [1]; Example 1, 28 days",No statistically significant difference
same,angiogenesis (lectin staining),"dental pulp [1]; Example 1, day 28 specimens",confirmed
same,neurite extension (PGP9.5 immunostaining),"dental pulp [1]; Example 1, day 28 specimens",confirmed
same,odontoblast-like cell adhesion to dentin side wall / dentin-like hard tissue formation,"dental pulp [1]; Example 1, day 28 specimens",odontoblast-like cells adhere to the side wall of the dentin to form dentin-like hard tissues
trypsin,dental pulp regeneration,"dental pulp [2]; middle-aged and elderly dogs, with dental pulp stem cell transplantation",promoted
same,dental pulp regeneration,dental pulp [2]; without the transplantation of dental pulp stem cells,rarely observed
same,dental pulp regeneration,"dental pulp [2]; young dogs, with dental pulp stem cell transplantation",not found to be effective
same,adhesion of the cells,dental pulp stem cells,increased the adhesion of the cells
same,differentiation into odontoblasts,dental pulp stem cells,exhibited enhancement in differentiation into odontoblasts
